# Test results as given in US8143254B2, “Methods for modulating ion channels” (Cornell Research Foundation, Inc., priority 2005, dated 2012).
# Biological target: T1, Kv2.1 channels expressed in CHO cells (Rattus norvegicus, UniProt P15387)
# T1 construct: expressed in transfected cells; host or cells: CHO cells (transient, co-transfected with GFP plasmid)
# T1 sequence (P15387 1-857): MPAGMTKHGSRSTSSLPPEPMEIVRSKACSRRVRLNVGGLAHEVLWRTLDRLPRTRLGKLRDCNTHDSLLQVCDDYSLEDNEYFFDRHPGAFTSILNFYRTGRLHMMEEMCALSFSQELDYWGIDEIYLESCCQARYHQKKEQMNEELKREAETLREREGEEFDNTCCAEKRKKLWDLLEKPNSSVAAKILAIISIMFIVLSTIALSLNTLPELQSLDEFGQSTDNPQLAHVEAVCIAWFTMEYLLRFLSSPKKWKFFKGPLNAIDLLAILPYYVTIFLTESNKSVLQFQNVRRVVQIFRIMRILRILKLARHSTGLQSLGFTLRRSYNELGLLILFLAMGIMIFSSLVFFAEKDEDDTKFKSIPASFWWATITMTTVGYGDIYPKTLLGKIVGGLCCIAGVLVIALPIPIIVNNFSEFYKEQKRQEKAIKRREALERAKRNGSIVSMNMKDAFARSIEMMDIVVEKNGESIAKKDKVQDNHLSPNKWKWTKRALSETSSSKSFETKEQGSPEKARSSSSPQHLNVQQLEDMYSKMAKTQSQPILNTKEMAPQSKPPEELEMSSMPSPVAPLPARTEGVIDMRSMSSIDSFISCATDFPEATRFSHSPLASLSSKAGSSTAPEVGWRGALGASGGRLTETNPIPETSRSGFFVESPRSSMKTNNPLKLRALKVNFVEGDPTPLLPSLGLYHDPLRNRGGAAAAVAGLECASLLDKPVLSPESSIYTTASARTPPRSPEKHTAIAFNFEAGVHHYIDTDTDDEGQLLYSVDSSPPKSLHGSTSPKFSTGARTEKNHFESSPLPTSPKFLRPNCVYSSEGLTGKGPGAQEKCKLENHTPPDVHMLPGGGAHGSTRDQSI
# Assay: Whole-cell voltage clamp of CHO cells transfected with Kv2.1
# Type: cell-based
# Excerpt: Kv2.1 mutants were constructed using the QuickChange Multi Site-Directed Mutagenesis Kit (Stratagene, La Jolla, Calif.). Mutant Kv2.1 genes (in the pGA1 oocyte expression vector for oocyte expression) were sequenced in their entirety to confirm appropriate mutations and check for inadvertent mutations, and then subcloned into a wild-type pGA1 backbone. For oocyte expression, Kv3.4 was in pBF1, Kv4.2 was in pRAT. cRNA transcripts were produced from SacII-linearized (Kv2.1), Mlullinearized (Kv3.4) and Not1-linearized (Kv4.2) DNA templates using the T3 (Kv2.1), SP6 (Kv3.4) and T7 (Kv4.2) mMessage mMachine kits (Ambion, Austin, Tex.). cRNA was quantified by spectrophotometry and its size integrity verified by gel electophoresis. Defolliculated stage V and VI Xenopus laevis oocytes (purchased from Nasco, Grand Island, N.Y.) were injected with 5 ng of cRNA encoding Kv2.1, Kv3.4 or Kv4.2. Chinese Hamster Ovary (CHO) cells were transfected with 0.25 μg Kv2.1 cDNA, 2 μg blank plasmid and 2 μg Green fluorescent Protein in pBOB using Supetfect transfection reagent (Qiagen) 24 hours before whole-cell voltage clamp studies.
# For whole-cell voltage clamp studies of CHO cells, bath solution was (in mM): 135 NaCl, 5 KCl, 1.2 MgCl2, 5 HEPES, 2.5 CaCl2, and 10 D-glucose, pH 7.4. Pipettes were 3-5 MQ resistance when filled with intracellular solution containing (in mM): 10 NaCl, 117 KCl, 2 MgCl2, 11 HEPES, 11 EGTA, and 1 CaCl2, pH 7.2. For experiments with extracellular drug application, cells were held at −80 mV and subjected to 2 sec test pulses […] every 30 s. Whole-cell patch clamp recordings were performed at 22-25° C. using an IX50 inverted microscope equipped with epifluorescence optics for GFP detection (Olympus), a Multiclamp 700 A Amplifier, a Digidata 1300 Analogue/Digital converter and pClamp9 software (Axon Instruments). Leak and liquid junction potentials (<4 mV) were not compensated for when generating current-voltage relationships. For intracellular drug application, the tip of the recording electrode was first filled with drug-free intracellular solution, the electrode was then back-filled with intracellular solution containing TEA (20 mM), TA279 (5 mM) or JC638.2α (0.5 mM). Cells were held at −80 mV and subjected to 2 sec test pulses from −60 mV to +60 mV in 10 mV increments, followed by a 1 sec tail pulse to −30 mV. After an initial recording which we denoted time 0, a second recording was performed after 5 minutes.
# Data analysis: Current-voltage relationships were obtained by measuring peak current during depolarizing pulses. Inhibition constants for DABCO blockers were calculated after generating a dose response curve by fitting with a logistic dose-response function y=A2+[A1−A2/1+(x/x0)^p], where A1 is the maximum response plateau, A2 is the minimum response plateau, x is drug concentrator, x0 is the IC50, and p the Hill slope. Data analysis was performed using CLAMPFIT 9 (Axon Instruments, Foster City, Calif.) and tabulated in Excel 5.0. Graphs were generated using Origin 6.1. Data are expressed as mean±SEM, with n specifying the number of independent experiments. Statistical significance was assessed by one-way ANOVA with p<0.05 being indicative of significance.
SMILES,sensitivity of Kv2.1 in CHO cells relative to Kv2.1 in oocytes,"block on intracellular application (5 μM via recording electrode, 0 mV, at 0 or 5 minutes)","inhibition at 0.5 µM (CHO, extracellular application, 500 nM, 0 mV, n=3, read-out: mean current inhibition)","block on intracellular application (0.5 mM via recording electrode, 0 mV)"
"CCCCCCCCCCCCCCCC[N+]12CCN(CC1)CC2 [TA279, 1-aza-4-azonia-4-hexadecylbicyclo[2.2.2]octane]",~4 fold,no significant block,59 ± 4%,
"c1cc(C[N+]23CCN(CC2)CC3)ccc1C[N+]12CCN(CC1)CC2 [JC638.2α, α,α′-[bis(4-aza-1-azoniabicyclo[2.2.2]octanyl)]p-xylene]",,,,no significant block
